# Measured values as given in US20090169540A1, “Use Of An Antagonist Of Epac For Treating Human Cardiac Hypertrophy” (priority 2005, published 2009).
# Where two headings read alike, the source gives them in different places.
# Columns and labels:
# Rac [1] = assay: Rac activation assay (Rac-GTP pull-down), primary rat ventricular cardiomyocytes; assay type: cell-based
# Rac [2] = assay: Rac activation assay (Rac-GTP pull-down), HL-1 atrial cells; assay type: cell-based, mouse
# Experimental: Rac activation was determined as above. […] Rac-GTP samples and total lysates were separated on SDS-PAGE gels and transferred onto a polyvinylidene difluoride (PVDF) membrane (Amersham Pharmacia Biotech).
# ANF promoter (ANF-Luc) = assay: ANF-Luc reporter gene assay in neonatal cardiomyocytes; assay type: cell-based, rat; conditions: 8-CPT 1 μM, compared to control cells
# Experimental: FIGS. 2A, 2C and 2D: Neonatal cardiomycoytes were transfected with ANF-Luc (FIG. 2A), SkM-α-actin-Luc (FIG. 2C) or c-fos-SRE-Luc (FIG. 2D) and EpacWT, RacG12V or the empty vector (mock) as control and treated or not with 8-CPT (1 μM). Two days after transfection, cells were assayed for luciferase activity. Results are expressed as percentage activation of control. Results are means±S.E.M. for 3 independent experiments performed in triplicates.
# In FIGS. 8A, 8B and 8C, cardiomyocytes infected with Ad.GFP (control), Ad.RacS17N, Ad.EpacWT, or Ad.EpacWT and Ad.RacS17N were transfected with NFAT-Luc, MEF2-Luc or ANF-Luc. Two days after, Luc activity was determined. Luc activity was normalized to control for each experiment, and were expressed as means±S.E.M of at least 3 separate experiments performed in triplicate
# The plasmid constructs were generously provided by the following: a −3003 bp fragment of the rat ANF promoter fused to the luciferase reporter gene (ANF-Luc) by Dr. K. Knowlton, Luciferase reporter genes linked to promoters for skeletal muscle α-actin (SkM-α-actin-Luc) and serum response element-regulated c-fos (c-fos-SRE-Luc) by Dr. M. D. Schneider, Epac1 plasmid constructs by Dr. J. Bos. […]
# [3] = system: neonatal rat ventricular myocytes; assay: Sarcomeric / cytoskeletal organization by phalloidin staining, neonatal cardiomyocytes; assay type: cell-based; conditions: 48 h; 8-CPT (1 mM) and PE (1 mM) as printed, in Ad.GFP cells; vs Ad.GFP alone
# [4] = system: neonatal rat ventricular myocytes; assay: Cell surface area by computer-assisted planimetry, neonatal cardiomyocytes; assay type: cell-based; conditions: for Cell surface area: 8-CPT 1 μM or PE 1 μM or adenovirus, compared to control Ad.GFP
# [5] = system: neonatal rat ventricular myocytes; assay: [3H]-leucine incorporation (protein synthesis), neonatal cardiomyocytes; assay type: cell-based; conditions: 8-CPT 1 μM, PE 1 μM or adenovirus
# [6] = system: neonatal rat ventricular myocytes; assay type: cell-based
# [7] = cited from earlier work
# MEF2 (MEF2-Luc) = assay: MEF2-Luc transcriptional activity in cardiomyocytes; assay type: cell-based, rat; conditions: cells infected with Ad.EpacWT or Ad.Epac-DcAMP; CsA 0.5 μM, KN-93 1 μM, or co-infection
compound,measurement,setting,value
"CO[C@@H]1[C@@H]2OP(=O)(O)OC[C@H]2O[C@H]1n1c(Sc2ccc(Cl)cc2)nc2c(N)ncnc21 [8-CPT, 8-(4-chloro-phenylthio)-2′-O-methyladenosine-3′-5′cyclic monophosphate]",Rac activation in cells infected with Ad.EpacWT,Rac [1]; Ad.EpacWT-infected cells treated with 8-CPT 1 μM for 10 min,further increased
same,Rac activation (Rac-GTP),"Rac [1]; activation of endogenous Epac, 8-CPT 1 μM, 10 min, rat cardiac myocytes",increased Rac activation
same,Amount of Rac-GTP / Rac activation,"Rac [2]; HL-1 adult mouse atrial cells, 100 μM, 10 min exposure",strong increase in the amount of Rac-GTP
same,Treatment time upon which 8-CPT-induced Rac activation was detected,"Rac [2]; HL-1 cells, 8-CPT 10 μM time course (FIG. 1C)",5 min
same,Activation of the ANF-Luc reporter gene,ANF promoter (ANF-Luc),three fold activation
same,Cytoskeletal (F-actin) / sarcomeric organization,[3],apparent increase of the F-actin meshwork and an heavily striated appearance
same,Cell surface area,[4]; 2 days,two fold increase
same,Effect of Ad.EpacWT on cell surface area in the presence of 8-CPT,[4]; Ad.EpacWT-infected cells plus 8-CPT 1 μM,not further increased
same,Protein synthesis ([3H]-leucine uptake),[5],approximate two fold increase
same,Frequency of spontaneous Ca2+ transients,[6],0.51±0.04 Hz
same,Frequency of spontaneous Ca2+ transients,"[6]; 8-CPT 100 nM, physiological external [Ca2+], n=13",0.40±0.05 Hz
same,Ca2+ spike frequency,"[6]; 8-CPT 10 μM in the presence of 20 mM external Cs+, n=8",1.25±0.35 Hz
same,Effect on Ca2+ transients,"[6]; 8-CPT 10 μM, absence of external Ca2+",had no effect
same,Amplitude of Ca2+ spikes,"[6]; 8-CPT 10 μM, physiological external [Ca2+]",without changing the amplitude of the spikes
same,Ca2+ spike frequency,"[6]; 8-CPT 100 μM, absence of external Ca2+, n=4",0.12±0.02 Hz
same,Ca2+ spike frequency,"[6]; 8-CPT 100 μM, absence of external Ca2+, presence of H89 1 μM, n=8",0.23±0.049 Hz
CCCCc1oc2ccccc2c1C(=O)c1cc(I)c(OCCN(CC)CC)c(I)c1 [Amiodarone],Hypothyroidism incidence,"[7]; as high as, in some series",8%-19%
same,Hyperthyroidism incidence,"[7]; human, in vivo",about 2%
same,Liver function test abnormalities incidence,"[7]; human, in vivo",4%-9%
same,Other serious side effect,"[7]; human, in vivo","optic neuropathy, which can lead to blindness"
same,Proarrhythmia incidence,"[7]; human, in vivo",2%-5%
same,Hypothyroidism incidence,[7]; in some cases,2%-4%
O=S(=O)(NCCNC/C=C/c1ccc(Br)cc1)c1cccc2cnccc12 [H89],8-CPT-induced increase in Ca2+ transients frequency,"[6]; H89 1 μM, 8-CPT 100 μM, absence of external Ca2+",failed to block
COc1ccc(S(=O)(=O)N(CCO)c2ccccc2CN(C)C/C=C/c2ccc(Cl)cc2)cc1 [KN-93],Ad.Epac-DcAMP-induced increase in cell surface area,"[4]; KN-93 1 μM, 2 days",significantly decreased
same,Epac-induced MEF2 transcriptional (luciferase) activity,MEF2 (MEF2-Luc),completely blocked
"CNC[C@H](O)c1cccc(O)c1 [PE, phenylephrine]",Cytoskeletal (F-actin) / sarcomeric organization,[3],comparable
same,Cell surface area,[4]; 2 days,Identical results
same,Protein synthesis ([3H]-leucine uptake),[5],approximate two fold increase
C[C@H](CCC(=O)O)C[C@H](C)C[C@H](C)C(=O)/C=C(\O)[C@H](C)C[C@H](C)C/C=C/[C@@H](C)[C@@H](O)[C@@H](C)[C@@H](O)C[C@@H]1CC[C@@](C)([C@H]2CC[C@@](C)([C@@H](C)O)O2)O1 [ionomycin],Effect on Rac activation relative to positive control PE (1 μM),Rac [1]; ionomycin 1 μM vs PE 1 μM 15 min,as potent as PE
same,Rac activation,"Rac [1]; ionomycin 1 μM, different times of incubation",increased Rac activation in a time dependent manner
